Experimental data from publication PMC10846744, “Cathelicidin peptide analogues inhibit EV71 infection through blocking viral entry and uncoating” (PLOS Pathogens, 2024).
Where no end group is shown, it is not given here.

Assays:
Assay type in all cases: cell-based, enterovirus 71 (EV71)
EV71 virus [1] = assay: EV71 infection inhibition on RD cells (VP1 immunoblot, viral titer, cell viability/CPE); settings: for inhibition of EV71 viral VP1 protein expression: EV71 MOI = 1 pre-incubated with peptide 1 hr at room temperature, RD cells, immunoblotting, 24 h.p.i
Method: Synthetic peptides were purchased from Bioyears Co. Ltd. (Wuhan, China) with purity of more than 95% and dissolved in PBS. To test their inhibitory effects, the EV71 virus (MOI = 1) was incubated with the indicated amount of peptide at room temperature for 1 hr before the mixture was added to RD cells and maintained throughout the experiment. Cell viability, viral titer, or viral protein expression was determined 24 h.p.i. For the time-of-addition experiment, viruses were either pre-incubated with peptides (for the -2 and -1 time points), the mixture was added to the cells simultaneously (for 0 time point), or peptides were added after virus infection (for 1, 2, 4 and 7 h time points) and the virus/peptide was maintained in the culture before cell viability, viral titer, or viral protein expression was determined 24 h.p.i. The TCID50 of the virus was calculated according to the Reed-Muench method.
Cells were treated as described and harvested with LDS sample buffer (Thermo Fisher Scientific). After denaturation, samples were separated on 10% SDS-PAGE gel and then transferred to a polyvinylidene fluoride (PVDF) membrane. The proteins were blocked using 5% skimmed milk and probed with the corresponding antibodies. The following antibodies were used in this study: EV71 VP1 polyclonal antibody (GeneTex, Taiwan, China), β-Actin antibody (Zen BioScience, Chengdu, China), pan-Enterovirus Monoclonal antibody (Thermo Fisher Scientific). The chemiluminescence signals were visualized using ECL Advance reagents (Mishubio, China), and the images were acquired using the FUSION Solo S Imaging System (VILBER, France).
Cell viability assays were carried out using the Cell Titer-Glo Luminescent Cell Viability Assay Kit (Promega, Madison, WI) following the manufacturer’s instructions. Luminescence signals were measured using a BioTek Neo2 microplate reader.
For crystal violet staining, cells treated as indicated were first washed once with PBS, followed by fixation with 4% PFA. Cells were then stained with 0.5% crystal violet for 2 hrs before they were extensively washed with water.

EV71 virus [2] = assay: Virus attachment assay (q-RT-PCR, immunoblotting); settings: 1.5 μM peptide (q-RT-PCR, MOI = 1) or 3 μM (immunoblotting, MOI = 10); RD cells 4°C 1 hr
Method: Fig 3 LL-18 and FF-18 inhibit viral attachment and internalization. (A) EV71 virus (MOI = 1) was pre-incubated with 1.5 μM LL-18, FF-18 or 12 μM 12s before they were used to incubate with RD cells at 4°C for 1 hr. Viral RNA was then determined with q-RT-PCR. Values are normalized to vehicle treated cells. ***, P<0.001. (B) EV71 virus (MOI = 1) was pre-incubated with 1.5 μM LL-18, FF-18 or 12 μM 12s before they were used to incubate with RD cells at 4°C for 1 hr followed by 37°C incubation for 1 hr. Viral RNA was then determined with q-RT-PCR. Values are normalized to vehicle treated cells. ***, P<0.001. (C) Diagram of EV71 subgenomic replicon. […] (D) RD cells transfected with EV71 SGR RNA were treated with 1.5 μM LL-18 or FF-18 for 3 hrs (left panel) or 6 hrs (right panel) before luciferase activity was measured. ns, not significant.
Viral binding and internalization assays were performed as previously described. […] Cells were then washed extensively with ice-cold PBS, and the viruses retained were analyzed with real-time PCR. […]
Supplementary file ppat.1011967.s002.tif: S2 Fig LL-18 and FF-18 inhibit viral attachment and internalization. […] Cells were then washed extensively and kept cultured for 24 hrs before viral VP1 expression was determined with immunoblotting. […] Cells were then washed extensively and kept cultured for 24 hrs before viral VP1 expression was determined with immunoblotting. […]

EV71 subgenomic replicon = EV71 subgenomic replicon (SGR) Renilla luciferase assay; settings: RD cells transfected with SGR RNA, 1.5 μM peptide for 3 or 6 hrs
Method: Fig 3 LL-18 and FF-18 inhibit viral attachment and internalization. (A) EV71 virus (MOI = 1) was pre-incubated with 1.5 μM LL-18, FF-18 or 12 μM 12s before they were used to incubate with RD cells at 4°C for 1 hr. Viral RNA was then determined with q-RT-PCR. Values are normalized to vehicle treated cells. ***, P<0.001. (B) EV71 virus (MOI = 1) was pre-incubated with 1.5 μM LL-18, FF-18 or 12 μM 12s before they were used to incubate with RD cells at 4°C for 1 hr followed by 37°C incubation for 1 hr. Viral RNA was then determined with q-RT-PCR. Values are normalized to vehicle treated cells. ***, P<0.001. (C) Diagram of EV71 subgenomic replicon. Part of the structural genes was replaced with a Renilla luciferase reporter gene. (D) RD cells transfected with EV71 SGR RNA were treated with 1.5 μM LL-18 or FF-18 for 3 hrs (left panel) or 6 hrs (right panel) before luciferase activity was measured. ns, not significant. […]
Full-length NanoLuc-EV71 reporter viruses and subgenomic EV71 replicon (SGR) were described previously. […] Nano luciferase and Renilla luciferase were measured with Nano-Glo or Renilla luciferase assay system from Promega (Madison, WI). Luminescence signals were measured using a BioTek Neo2 microplate reader.

FRKSKEKIGKFFKRIVQRIFDFLRNLV [FF-18]
inhibition of EV71 infection (overall conclusion) (EV71 virus [1]): could effectively inhibit EV71 infection | reduction of EV71 viral titer in supernatant (EV71 virus [1]): reduce the viral titers dose-dependently | inhibition of EV71 viral VP1 protein expression (EV71 virus [1]): inhibit EV71 viral protein expression in a dose-dependent manner | inhibition of EV71 attachment (EV71 virus [2]): could effectively inhibit EV71 attachment | inhibition of EV71 SGR luciferase (viral translation or replication) (EV71 subgenomic replicon): no inhibition

FRKSKEKIGKLFKRIVQRILDFLRNLV [LL-18]
inhibition of EV71 infection (overall conclusion) (EV71 virus [1]): could effectively inhibit EV71 infection | reduction of EV71 viral titer in supernatant (EV71 virus [1]): reduce the viral titers dose-dependently | inhibition of EV71 viral VP1 protein expression (EV71 virus [1]): inhibit EV71 viral protein expression in a dose-dependent manner | inhibition of EV71 attachment (EV71 virus [2]): could effectively inhibit EV71 attachment | inhibition of EV71 SGR luciferase (viral translation or replication) (EV71 subgenomic replicon): no inhibition
